{"source": "patent US11998602B2", "about": "“Methods for promoting myelination and for treating demyelinating diseases” (The Scripps Research Institute, priority 2018, dated 2024)", "key": {"[1]": {"tested_on": "Rat primary optic nerve OPCs", "assay": "In vitro OPC differentiation assay, MBP expression by Western blot", "type": "cell-based", "method": "Rat primary optic nerve OPCs were isolated by panning (>99% A2B5^+) and cultured in poly-D-lysine (10 μg/ml)-coated TC dishes in OPC culture media (Neurobasal Media, Invitrogen) supplemented with B27-without vitamin A (Invitrogen), 1× non-essential amino acids, 1× Glutamax, 1× anti-anti, β-mercaptoethanol and PDGF-AA (50 ng/ml; Peprotech) at 37° C. with 5% CO2. The culture medium was replaced every 48 h and cells were collected before the confluency reached 60% to maintain a naive state. For differentiation, OPCs were plated at 1 million cells in one 10 cm petri-dish filled with differentiation media, which is identical to the culture media, but with PDGF-AA at 2 ng/ml. T3 and DMSO were used as the positive control and negative control, respectively. Five replicates of cells were collected at different times (0, 3, and 6 days) for metabolomics studies.\nWestern blot analysis. OPCs were plated in basal differentiation medium at 1.7×10^5 cells/well and treated for 6 days with benztropine (0.5 μM), miconazole (2 μM) with and without the tested endogenous metabolites, T3 (1 μM) or DMSO. After washing with PBS, cells were collected in ice cold RIPA buffer containing protease and phosphatase inhibitors. Following incubation on ice for >20 min and sonication, lysed cells were centrifuged (16,000 g, 15 min at 4° C.). Total protein was quantified using a BCA analysis and 25 μg of protein from each sample was denatured by boiling with Bolt LDS Sample Buffer (4×) and Sample Reducing Agent (10×). Proteins were electrophoresed using Bolt 4-12% Bis-Tris gels (Life Technologies) and transferred to a PVDF membrane (Bio-Rad). The membrane was blocked with Odyssey PBS Blocking Buffer (LI-COR) and incubated overnight at 4° C. with anti-MBP (mouse, 1:2000) and anti-actin (mouse, 1:5000). Blots were incubated with […] secondary donkey anti-mouse antibody (LI-COR, 1:7500) and imaged using Odyssey CLx and Image Studio (LI-COR)."}, "[2]": {"tested_on": "Rat primary optic nerve OPCs", "assay": "High content imaging assay of OPC differentiation (MBP, A2B5, DAPI cell counts)", "type": "cell-based", "method": "Rat primary optic nerve OPCs were isolated by panning (>99% A2B5^+) and cultured in poly-D-lysine (10 μg/ml)-coated TC dishes in OPC culture media (Neurobasal Media, Invitrogen) supplemented with B27-without vitamin A (Invitrogen), 1× non-essential amino acids, 1× Glutamax, 1× anti-anti, β-mercaptoethanol and PDGF-AA (50 ng/ml; Peprotech) at 37° C. with 5% CO2. The culture medium was replaced every 48 h and cells were collected before the confluency reached 60% to maintain a naive state. For differentiation, OPCs were plated at 1 million cells in one 10 cm petri-dish filled with differentiation media, which is identical to the culture media, but with PDGF-AA at 2 ng/ml. T3 and DMSO were used as the positive control and negative control, respectively. Five replicates of cells were collected at different times (0, 3, and 6 days) for metabolomics studies. High content imaging. For dose-response co-treatment experiments, black, clear-bottom 384-well plates (Greiner) were coated with poly-D-lysine (10 μg ml^−1 in PBS). miconazole and benztropine were added at 8 doses in differentiation media; 3-fold dilutions down from 10 μM. taurine was then added at 8 concentrations; 3-fold dilutions down from 20 mM. This 384-well format was also utilized for experiments combining benztropine (0.5 μM), miconazole (2 μM) or T3 (1 μM) with propargylglycine (0.1, 3, 10, 30 μM), reduced glutathione (1, 10, 30, 100 μM) or ascorbic acid ([…]). OPCs were then seeded at a density of 1,000 cells per well, and the plates were incubated at 37° C. with 5% CO2 for 6 days. For time course experiments, cells were seeded at a density of 5,000 cells per well in poly-D-lysine-coated 96-well plates. Cells were treated with DMSO (0.1%), benztropine (0.5 μM), miconazole (2 μM) or T3 (1 μM) on day 0, and taurine (20 mM) was added in combination at 0, 1 or 3 days post-drug treatment. The plates were incubated at 37° C. with 5% CO2 for 6 days. On day 6, cells were then fixed for 20 min with 4% formaldehyde solution and stained with mouse anti-Myelin Basic Protein (MBP) antibody (MAB382, Millipore) or anti-A2B5 antibody (MAB312, Millipore) in 3% BSA, 0.3% Triton X-100 with overnight incubation at 4° C. The cells were washed and incubated with secondary antibody (goat anti-mouse Alexa Fluor488) and DAPI (Invitrogen) for 1 h at room temperature. The cells were washed and plates were sealed and imaged using an Opera confocal imaging reader (Perkin Elmer) or a Cellomics Cell Insight imaging reader (Thermo). An air ×10 lens was used to capture 9 images per well at both wavelengths (488 and 365 nm), with each image representing a different unique locations field in a single well. For image analysis, DAPI-stained nuclei and MBP-positive or A2B5-positive cell bodies were detected using an algorithm that selects for positive cell bodies and nuclei within a range of fluorescent emission values and sizes as determined by fitting parameters to positive (T3, 1 μM) and negative controls (DMSO, 0.1%). The numbers of DAPI-positive objects were enumerated in experiments where cell counts were required. Numerical results from the analyzed images were later exported for analysis using Excel (Microsoft) and/or Genedata software."}}, "data": [{"smiles": "NCCS(=O)(=O)O", "note": "[taurine, 2-aminoethanesulfonic acid]", "values": [{"measurement": "MBP induction (Western blot), increase compared to benztropine-induced differentiation in the absence of taurine", "setting": "[1]; 2 mM taurine added to benztropine (0.5 μM), 6 days", "result": 2.0, "unit": "fold"}, {"measurement": "MBP induction (Western blot), increase compared to miconazole-induced differentiation in the absence of taurine", "setting": "[1]; 2 mM taurine added to miconazole (2 μM), 6 days", "result": 2.3, "unit": "fold"}, {"measurement": "Efficacy of induced OPC differentiation", "setting": "[1]; added to benztropine- or miconazole-containing media", "result": "dramatically increase"}, {"measurement": "Enhancement of overall cell number compared to drug treatment alone", "setting": "[2]; >2 mM taurine with miconazole or benztropine, 6 days", "result": "over 20%"}, {"measurement": "Days of taurine addition with the most significant impact on MBP expression", "setting": "[2]; dosing initiated at days 0 to 5, evaluated at day 6", "result": "between days 1 and 3"}, {"measurement": "Impact on MBP expression of taurine addition on day 0 compared with days 1 to 3", "setting": "[2]; evaluated at day 6", "result": "significantly less efficacious"}, {"measurement": "Impact on number of residual immature A2B5+ OPCs", "setting": "[2]; taurine added on day 0, 1 or 3 to basal or drug-induced conditions, read at day 3 or day 6", "result": "minimal, albeit statistically significant, impact"}]}]}
